The values below are quoted from earlier work in patent US20180346745A1, “WATER-BASED INK COMPOSITION FOR INK JET RECORDING AND COLORING MATERIAL LIQUID” (Seiko Epson Corporation, priority 2017, published 2018).

The structures appear in SMILES notation.

The conditions of this data set: value defined by OECD Test Guideline 107.
On to `CCCCCOCC(O)CO` (centres unmarked) [3-pentyloxy-1,2-propanediol], for which the “log P (water-octanol partition coefficient)” value (“log P” for short) was 0.83.

`CCCCCCC(O)CO` (centres unmarked) [1,2-octane diol]: the “log P” value is listed as 1.32.

On to `CCCCOCCOCCO` [butyl diglycol], for which the “log P” value is reported as 0.56.

For the compound `CCCCOCC(C)O` (centres unmarked) [propylene glycol monobutyl ether], the “log P” value was 1.14.

For `CCCOCC(C)O` (centres unmarked) [propylene glycol monopropyl ether], the “log P” value is recorded as 0.61.
